According to ChEMBL document CHEMBL4402591, “Imidazo[1,2-a]pyridine Derivatives as Aldehyde Dehydrogenase Inhibitors: Novel Chemotypes to Target Glioblastoma Stem Cells” (J Med Chem, 2020):

Tests used:
[1] = target: T1, Retinaldehyde dehydrogenase 3 (Homo sapiens, UniProt P47895); assay: Inhibition of recombinant human 6His-tagged ALDH1A3 expressed in Escherichia coli BL21(DE3) using acetaldehyde as substrate preincubated for 5 mins followed by substrate addition by spectrometric assay
T1 sequence (P47895 whole entry): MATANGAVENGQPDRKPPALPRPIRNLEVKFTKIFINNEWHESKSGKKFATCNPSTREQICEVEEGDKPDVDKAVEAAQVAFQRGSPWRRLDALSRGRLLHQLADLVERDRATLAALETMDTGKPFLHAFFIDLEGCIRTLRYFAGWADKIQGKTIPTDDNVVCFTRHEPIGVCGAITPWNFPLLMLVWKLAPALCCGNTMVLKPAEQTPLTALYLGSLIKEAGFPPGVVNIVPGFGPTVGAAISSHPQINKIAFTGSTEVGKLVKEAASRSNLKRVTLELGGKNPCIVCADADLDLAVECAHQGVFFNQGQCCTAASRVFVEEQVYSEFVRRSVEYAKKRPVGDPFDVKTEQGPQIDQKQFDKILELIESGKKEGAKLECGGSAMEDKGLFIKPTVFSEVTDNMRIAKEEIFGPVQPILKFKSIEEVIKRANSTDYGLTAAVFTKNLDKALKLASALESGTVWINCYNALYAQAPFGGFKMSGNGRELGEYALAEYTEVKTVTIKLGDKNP

[2] = Antiproliferative activity against human PN157 cells measured after 72 hrs by alamar blue assay; format: functional, cell-based
[3] = Antiproliferative activity against human MES267 cells measured after 72 hrs by alamar blue assay; format: functional, cell-based
[4] = Antiproliferative activity against human MES374 cells measured after 72 hrs by alamar blue assay; format: functional, cell-based
[5] = target: T2, Aldehyde dehydrogenase 1A1 (Homo sapiens, UniProt P00352); assay: Inhibition of recombinant human 6His-tagged ALDH1A1 expressed in Escherichia coli BL21(DE3) using acetaldehyde as substrate preincubated for 5 mins followed by substrate addition by spectrometric assay
T2 sequence (P00352 whole entry): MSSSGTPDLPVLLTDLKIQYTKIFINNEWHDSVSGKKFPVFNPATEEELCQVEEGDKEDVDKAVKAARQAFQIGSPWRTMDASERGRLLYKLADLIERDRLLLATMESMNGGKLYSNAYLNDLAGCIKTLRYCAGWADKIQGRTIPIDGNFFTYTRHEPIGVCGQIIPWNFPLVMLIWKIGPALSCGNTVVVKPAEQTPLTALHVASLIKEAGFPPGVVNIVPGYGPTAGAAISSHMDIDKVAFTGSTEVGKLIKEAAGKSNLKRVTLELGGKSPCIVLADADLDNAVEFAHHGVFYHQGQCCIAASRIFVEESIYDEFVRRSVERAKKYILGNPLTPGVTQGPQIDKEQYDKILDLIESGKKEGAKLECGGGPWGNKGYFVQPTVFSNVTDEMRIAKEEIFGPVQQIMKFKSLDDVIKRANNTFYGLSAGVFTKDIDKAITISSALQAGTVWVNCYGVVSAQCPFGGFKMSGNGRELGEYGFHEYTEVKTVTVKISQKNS

[6] = target: T1, Retinaldehyde dehydrogenase 3; assay: Competitive inhibition of recombinant human 6His-tagged ALDH1A3 expressed in Escherichia coli BL21(DE3) using varying level of acetaldehyde as substrate preincubated for 5 mins followed by substrate addition by Michaelis-Menten plot analysis
[7] = target: T3, Retinal dehydrogenase 2 (Homo sapiens, UniProt O94788); assay: Inhibition of recombinant human 6His-tagged ALDH1A2 expressed in Escherichia coli BL21(DE3) using acetaldehyde as substrate preincubated for 5 mins followed by substrate addition by spectrometric assay
T3 sequence (O94788 whole entry): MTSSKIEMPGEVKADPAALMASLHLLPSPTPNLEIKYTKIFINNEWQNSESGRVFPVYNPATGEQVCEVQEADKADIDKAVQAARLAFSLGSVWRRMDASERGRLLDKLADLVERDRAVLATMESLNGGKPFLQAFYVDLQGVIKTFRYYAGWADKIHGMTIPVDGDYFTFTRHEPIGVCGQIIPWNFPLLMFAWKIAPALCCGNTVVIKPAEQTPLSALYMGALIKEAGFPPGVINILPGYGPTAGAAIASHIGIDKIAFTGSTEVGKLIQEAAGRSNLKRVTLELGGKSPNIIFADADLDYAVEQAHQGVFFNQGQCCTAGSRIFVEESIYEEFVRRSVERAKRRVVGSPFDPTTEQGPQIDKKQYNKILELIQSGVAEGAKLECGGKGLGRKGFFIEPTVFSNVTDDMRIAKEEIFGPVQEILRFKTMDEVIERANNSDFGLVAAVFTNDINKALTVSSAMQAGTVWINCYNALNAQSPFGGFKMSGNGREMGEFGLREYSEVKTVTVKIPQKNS

COc1ccc(-c2ccc3nc(-c4ccc(OC)cc4)cn3c2)cc1
IC50 [1]: 11.4 µM

COc1cccc(-c2cn3cc(-c4ccc(Cl)cc4)ccc3n2)c1
IC50 [2]: 0.0296 µM
IC50 [3]: 0.0712 µM
IC50 [4]: 13.5 nM
IC50 [1]: 6.4 µM

COC(=O)c1ccc(-c2ccc3nc(-c4ccccc4)cn3c2)cc1
IC50 [2]: 0.822 µM
IC50 [3]: 0.823 µM
IC50 [5]: 96.9 µM
IC50 [1]: 27.4 µM

Cc1ccc(-c2cn3cc(-c4ccc(F)cc4)ccc3n2)cc1
IC50 [1]: 92.9 µM

COc1ccc(-c2cn3cc(-c4ccc(OC)c(OC)c4)ccc3n2)cc1
IC50 [1]: 8.3 µM

COc1ccc(-c2cn3cc(-c4cc(OC)cc(OC)c4)ccc3n2)cc1
IC50 [5]: 198 µM
IC50 [1]: 3.5 µM

Fc1ccc(-c2ccc3nc(-c4ccccc4)cn3c2)cc1
IC50 [2]: 0.0252 µM
IC50 [3]: 0.0634 µM
IC50 [4]: 0.00258 nM
IC50 [1]: 22.8 µM

COc1cccc(-c2cn3cc(-c4ccc(F)cc4)ccc3n2)c1
IC50 [2]: 1.51 µM
IC50 [3]: 0.35 µM
IC50 [1]: 21.2 µM

c1ccc(-c2ccc3nc(-c4ccccc4)cn3c2)cc1
IC50 [2]: 0.151 µM
Ki [6]: 0.54 µM
IC50 [3]: 0.0469 µM
IC50 [4]: 2.74 nM
IC50 [7]: 54.6 µM
IC50 [5]: 19.6 µM
IC50 [1]: 4.7 µM

Clc1ccc(-c2ccc3nc(-c4ccccc4)cn3c2)cc1
IC50 [2]: 0.0531 µM
IC50 [3]: 0.0215 µM
IC50 [4]: 0.0196 nM
IC50 [5]: 68.8 µM
IC50 [1]: 45.8 µM

Clc1ccc(-c2ccc3nc(-c4ccc(Br)cc4)cn3c2)cc1
IC50 [5]: 17.3 µM

N#Cc1ccc(-c2ccc3nc(-c4ccccc4)cn3c2)cc1
IC50 [1]: 5.2 µM

CSc1ccc(-c2ccc3nc(-c4ccccc4)cn3c2)cc1
IC50 [1]: 27.1 µM

Cc1ccc(-c2cn3cc(-c4ccccc4)ccc3n2)cc1
IC50 [1]: 11.3 µM

COc1ccc(-c2ccc3nc(-c4ccccc4)cn3c2)cc1
IC50 [2]: 2.66 µM
IC50 [3]: 0.66 µM
IC50 [1]: 17.8 µM

N#Cc1cccc(-c2ccc3nc(-c4ccccc4)cn3c2)c1
IC50 [1]: 5.3 µM
